In patent publication EP2966448B1, “METHOD FOR THE PREDICTION OR PROGNOSIS OF THE RESPONSE OF A HUMAN SUBJECT SUFFERING FROM CANCER TO TREATMENT WITH AN ANTAGONIST OF THE NK1 RECEPTOR” (priority 2013, dated 2014):
Read-outs that look alike come from different tables or passages of the source.

Columns and labels:
[1] = system: Undifferentiated Pleomorphic Sarcoma (malignant fibrous histiocytoma grade 3); experiment: Inhibition of primary tumor cell cultures vs Kras mutation (Example 2); assay type: cell-based, human; conditions: Homo sapiens, 100 micromolar, read-out: Percentage of inhibition of cell cultures
Method: (§1) Cell cultures. To obtain tumor cells from human primary tumors we used the method described in De Bari et al. (De Bari et al. 2001). Briefly, small pieces of the tumors were digested into a hyaluronidase solution (Sigma-Aldrich, USA) at a concentration of 1 mg/ml during 15 minutes at 37°C, and then they were treated with 6 mg/ml of collagenase type IV (Invitrogen) during 2 hours at 37°C. Consecutively, cells were washed, and resuspended in the DMEM culture medium with high concentration of glucose (Dulbecco's Modified Eagle's Medium, Invitrogen) supplemented with 1% of antibiotics-antimycotics (Invitrogen) and with 1% of sodium pyruvate (Invitrogen), and the cells were seeded in culture slides at a concentration of 10.000 cells per square centimeter. When cells reached confluence, the adherent cells were separated using sterile trypsin at 0,5% (Invitrogen) and they were used among passages 3 and 9. For the assays shown next, tumor cells were seeded on slides at a concentration of 25.000 cells per well. A total of 6 wells containing the tumor cells were used as survival control. […] All the cultures were kept during 48 hours and later on recollected for their analysis.
(§2) In each case the presence or not of mutations in K-ras gene was determined.
(§3) To determine the existence of mutations in the K-ras gene DNA from cancer tumor cells was extracted from samples obtained from the different cancer tumor cells, using DNA extraction kits from Takara (Madison, WI, US) or Ambion (Huntingdon, Cambridgeshire, United Kingdom), following the manufacturer's instructions, and as it has been previously published (Di Fiore F, et al. 2007). Consecutively it was analyzed by sequencing the exon 2 of the KRAS gene, , by means of PCR amplification from previously extracted cancer tumor DNA, using the following sense primer (SEQ ID NO. 15): 5'-[sequence]-3' and anti-sense primer (SEQ ID NO. 16): 5'-[sequence]-3'. After the purification using the Qiagen extraction kit, the PCR products were sequenced using the Big Dye Terminator Kit V3.1 (Applied Biosystems, Foster City, CA, U.S.) and an ABI Prism 377 or 3100 DNA sequencer (Applied Biosystems). The presence of a heterozygous mutation in the KRAS gene in cancer tumor cells of the cultures was defined as the appearance of a mutant peak of a height of at least a third of the wild type. All the sequence analysis were executed at least twice in two independent PCR.
The percentages of inhibition are expressed in percentage of variation in relation to control ± standard deviation.

Breast carcinoma = experiment: Inhibition of primary tumor cell cultures (48 hours) vs NK1 receptor immunostaining (Example 1); assay type: cell-based; conditions: Homo sapiens, 1 micromolar, read-out: Percentage of inhibition of cell cultures
Method: as §1
(§4) Immunohistochemistry techniques. The presence of NK1 receptors was also analyzed using immunohistochemistry techniques. Briefly, a sample of each of the cultures of the cell lines used in the present invention, was centrifuged (5 minutes at 1.500 rpm) and the pellet obtained was dehydrated using increasing concentrations of ethanol and, finally, xylol. Then, said dehydrated samples were embedded in paraffin, creating a block of cells. Such paraffin blocks were cut with a microtome at 5 microns thickness, and were placed on microscope slides adequate to perform immunohistochemistry techniques. Consecutively, they were de-paraffinized by immersing them in xylol, to be finally hydrated using a solution containing decreasing concentrations of ethanol, and finally submerged them into water. […] After this, the samples were left to cool down at room temperature for 10 minutes. The endogenous peroxidase activity was blocked with 3% peroxide of hydrogen for 30 minutes at room temperature. After washing the samples with 0.05 M of Tris buffer, they were incubated with 10% non-immune pork serum at for 30 minutes at room temperature. To analyze the expression of NK1 receptors, the cellular samples were incubated in the presence of anti-NK1 antibodies (S8305, Sigma-Aldrich) diluted 1:1000, overnight at 4°C. Afterwards, the samples were washed in Tris buffer 0.05 M at room temperature. The next step was the addition of Envision System-HRP (Dako) reagents for 30 minutes at room temperature. Then, the samples were washed again in Tris buffer 0.05 M and the immunoreactivity was visualized through light microscopy with a chromogenic solution containing 3,3'-Diaminobenzidine (DAB+; Dako, USA). To differentiate the cell nuclei, they were slightly stained with hematoxylin. As negative control, it was used samples not incubated with the primary antibody anti-NK1, which was replaced by non-immune serum. All the samples were evaluated.
(§5) To value the immunostaining in each of the cases six cuts were performed to be analyzed by the immunohistochemistry technique. In each of the six cuts, it was counted cells in 20 fields (magnification 400x) using an Olympus microscope (model CX31). In each field it was counted the total number of cells and the number of cells presenting immunostaining, calculating afterwards the percentage of cells which presented immunostaining.

[2] = system: Malignant Fibrous Histiocytoma; experiment: as above; assay type: cell-based; conditions: Homo sapiens, 1 micromolar, read-out: Percentage of inhibition of cell cultures
Method: as §1, §4, §5

Leukemia B = experiment: as above; assay type: cell-based; conditions: Homo sapiens, 1 micromolar, read-out: Percentage of inhibition of cell cultures
Method: as §1, §4, §5

Neuroblastoma = experiment: as above; assay type: cell-based; conditions: Homo sapiens, 1 micromolar, read-out: Percentage of inhibition of cell cultures
Method: as §1, §4, §5

[3] = system: human primary tumor cells; experiment: Inhibition of primary tumor cell cultures vs absence or presence of ERK  protein (Example 3; tumor type per table line); assay type: cell-based; conditions: for Percentage of inhibition of cell cultures: 100 micromolar
Method: (§6) Cell cultures. […] Briefly, small pieces of the tumors were digested into a hyaluronidase solution (Sigma-Aldrich, USA) at a concentration of 1 mg/ml during 15 minutes at 37°C, and then they were treated with 6 mg/ml of collagenase type IV (Invitrogen) during 2 hours at 37°C. Consecutively, cells were washed, and resuspended in the DMEM culture medium with high concentration of glucose (Dulbecco's Modified Eagle's Medium, Invitrogen) supplemented with 1% of antibiotics-antimycotics (Invitrogen) and with 1% of sodium pyruvate (Invitrogen), and the cells were seeded in culture slides at a concentration of 10.000 cells per square centimeter. When cells reached confluence, the adherent cells were separated using sterile trypsin at 0,5% (Invitrogen) and they were used among passages 3 and 9. For the assays shown next, tumor cells were seeded on slides at a concentration of 25.000 cells per well. A total of 6 wells containing the tumor cells were used as survival control. […] All the cultures were kept during 48 hours and later on recollected for their analysis.
Consecutively, the cells were placed in cultures in the presence of several antagonists of the NK1 receptor.
In each case it was determined the presence or absence of the downstream effector in the MAP Kinases ERK pathway.
To determine the presence of the ERK protein, it was performed a Western Blot technique, using as primary antibody: Phospho-p44/42 MAPK (Erk1/2) (Thr202/Tyr204) (D13.14.4E) XP® Rabbit mAb (4370, Cell Signalling). To determine the presence of the MEK protein, it was performed the Western Blot technique, using as primary antibody Phospho-MEK1/2 (Ser217/221) (9121, Cell Signalling).
The antibody against NK1 receptor (Table 21) was used at 1/50 concentration. The percentages of inhibition are expressed in percentages of variation in relation to control ± standard deviation.

Endometrium carcinoma = experiment: Inhibition of primary tumor cell cultures vs Kras mutation (Example 2); assay type: cell-based, human; conditions: Homo sapiens, 100 micromolar, read-out: Percentage of inhibition of cell cultures
Method: as §6, §2, §3
(§7) The antibody against NK1 receptor (Table 16) was used at 1/50 concentration. The percentages of inhibition are expressed in percentage of variation in relation to control ± standard deviation.

[4] = system: Colon carcinoma (Adenocarcinoma); experiment: as above; assay type: cell-based, human; conditions: Homo sapiens, 100 micromolar, read-out: Percentage of inhibition of cell cultures
Method: as §1, §2, §3, §7

[5] = system: Thyroid carcinoma (papillary type); experiment: Inhibition of primary tumor cell cultures (48 hours) vs NK1 receptor immunostaining (Example 1); assay type: cell-based; conditions: Homo sapiens, 1 micromolar, read-out: Percentage of inhibition of cell cultures
Method: as §1, §4, §5

Non Hodgkin Lymphoma T = experiment: as above; assay type: cell-based; conditions: Homo sapiens, 1 micromolar, read-out: Percentage of inhibition of cell cultures
Method: as §1, §4, §5

[6] = Cases with Kras non-mutated (wild type)
[7] = NK1 receptor immunostaining Group 1 (less than 20% of the cells)
[8] = NK1 receptor immunostaining Group 2 (20-80% of the cells)
[9] = NK1 receptor immunostaining Group 3 (more than 80% of the cells)
[10] = NK1 receptor immunostaining Intensity grade 1
[11] = NK1 receptor immunostaining Intensity grade 2
[12] = NK1 receptor immunostaining Intensity grade 3

## CC(=O)N1CCN([C@H]2CCN(C(=O)N(C)[C@H](C)c3cc(C(F)(F)F)cc(C(F)(F)F)c3)[C@@H](c3ccc(F)cc3C)C2)CC1 [Casopitant]
[1]; Cases with Kras mutated
  inhibition at 100 µM: 26 ± 5%
[1]; [6]
  inhibition at 100 µM: 95 ± 5%
Breast carcinoma; [7]
  inhibition at 1 µM: 15 ± 3%
Breast carcinoma; [8]
  inhibition at 1 µM: 47 ± 4%
Breast carcinoma; [9]
  inhibition at 1 µM: 92 ± 3%
Breast carcinoma; [10]
  inhibition at 1 µM: 35 ± 3%
Breast carcinoma; [11]
  inhibition at 1 µM: 56 ± 6%
Breast carcinoma; [12]
  inhibition at 1 µM: 92 ± 2%
[2]; [7]
  inhibition at 1 µM: 14 ± 3%
[2]; [8]
  inhibition at 1 µM: 46 ± 4%
[2]; [9]
  inhibition at 1 µM: 94 ± 5%
[2]; [10]
  inhibition at 1 µM: 32 ± 5%
[2]; [11]
  inhibition at 1 µM: 53 ± 4%
[2]; [12]
  inhibition at 1 µM: 93 ± 2%
Leukemia B; [7]
  inhibition at 1 µM: 17 ± 3%
Leukemia B; [8]
  inhibition at 1 µM: 46 ± 5%
Leukemia B; [9]
  inhibition at 1 µM: 94 ± 6%
Leukemia B; [10]
  inhibition at 1 µM: 36 ± 3%
Leukemia B; [11]
  inhibition at 1 µM: 52 ± 3%
Leukemia B; [12]
  inhibition at 1 µM: 92 ± 5%
Neuroblastoma; [7]
  inhibition at 1 µM: 16 ± 2%
Neuroblastoma; [8]
  inhibition at 1 µM: 45 ± 4%
Neuroblastoma; [9]
  inhibition at 1 µM: 94 ± 4%
Neuroblastoma; [10]
  inhibition at 1 µM: 35 ± 4%
Neuroblastoma; [11]
  inhibition at 1 µM: 55 ± 5%
Neuroblastoma; [12]
  inhibition at 1 µM: 94 ± 4%
[3]; Breast carcinoma (ductal adenocarcinoma), cases with presence of ERK
  Percentage of inhibition of cell cultures: 93±4 percentage
[3]; Breast carcinoma (ductal adenocarcinoma), cases without presence of ERK
  Percentage of inhibition of cell cultures: 26±4 percentage
[3]; Burkitt Lymphoma, cases with presence of ERK
  Percentage of inhibition of cell cultures: 97±5 percentage
[3]; Burkitt Lymphoma, cases without presence of ERK
  Percentage of inhibition of cell cultures: 28±6 percentage
[3]; Carcinoma of the uterine cervix (Squamous cell carcinoma), cases with presence of ERK
  Percentage of inhibition of cell cultures: 93±4 percentage
[3]; Carcinoma of the uterine cervix (Squamous cell carcinoma), cases without presence of ERK
  Percentage of inhibition of cell cultures: 28±3 percentage
[3]; Colon carcinoma (Adenocarcinoma), cases with presence of ERK
  Percentage of inhibition of cell cultures: 95±3 percentage
[3]; Colon carcinoma (Adenocarcinoma), cases without presence of ERK
  Percentage of inhibition of cell cultures: 24±3 percentage
[3]; Endometrium carcinoma, cases with presence of ERK
  Percentage of inhibition of cell cultures: 93±5 percentage
[3]; Endometrium carcinoma, cases without presence of ERK
  Percentage of inhibition of cell cultures: 29±2 percentage
[3]; Gastric carcinoma (Adenocarcinoma), cases with presence of ERK
  Percentage of inhibition of cell cultures: 96±4 percentage
[3]; Gastric carcinoma (Adenocarcinoma), cases without presence of ERK
  Percentage of inhibition of cell cultures: 25±6 percentage
[3]; Glioma (astrocytoma), cases with presence of ERK
  Percentage of inhibition of cell cultures: 93±4 percentage
[3]; Glioma (astrocytoma), cases without presence of ERK
  Percentage of inhibition of cell cultures: 28±3 percentage
[3]; Lung carcinoma (non small cell lung carcinoma), cases with presence of ERK
  Percentage of inhibition of cell cultures: 95±7 percentage
[3]; Lung carcinoma (non small cell lung carcinoma), cases without presence of ERK
  Percentage of inhibition of cell cultures: 27±5 percentage
[3]; Lung carcinoma (small cell lung carcinoma), cases with presence of ERK
  Percentage of inhibition of cell cultures: 94±5 percentage
[3]; Lung carcinoma (small cell lung carcinoma), cases without presence of ERK
  Percentage of inhibition of cell cultures: 29±4 percentage
[3]; Melanoma (Nodular Melanoma), cases with presence of ERK
  Percentage of inhibition of cell cultures: 96±5 percentage
[3]; Melanoma (Nodular Melanoma), cases without presence of ERK
  Percentage of inhibition of cell cultures: 27±5 percentage
[3]; Non Hodgkin Lymphoma B (diffuse B cell lymphoma), cases with presence of ERK
  Percentage of inhibition of cell cultures: 97±5 percentage
[3]; Non Hodgkin Lymphoma B (diffuse B cell lymphoma), cases without presence of ERK
  Percentage of inhibition of cell cultures: 28±4 percentage
[3]; Non Hodgkin Lymphoma T (diffuse T cell lymphoma), cases with presence of ERK
  Percentage of inhibition of cell cultures: 98±4 percentage
[3]; Non Hodgkin Lymphoma T (diffuse T cell lymphoma), cases without presence of ERK
  Percentage of inhibition of cell cultures: 29±5 percentage
[3]; Ovarian carcinoma (Adenocarcinoma), cases with presence of ERK
  Percentage of inhibition of cell cultures: 92±6 percentage
[3]; Ovarian carcinoma (Adenocarcinoma), cases without presence of ERK
  Percentage of inhibition of cell cultures: 28±5 percentage
[3]; Pancreatic carcinoma (Adenocarcinoma), cases with presence of ERK
  Percentage of inhibition of cell cultures: 94±2 percentage
[3]; Pancreatic carcinoma (Adenocarcinoma), cases without presence of ERK
  Percentage of inhibition of cell cultures: 23±4 percentage
[3]; Prostate carcinoma, cases with presence of ERK
  Percentage of inhibition of cell cultures: 94±5 percentage
[3]; Prostate carcinoma, cases without presence of ERK
  Percentage of inhibition of cell cultures: 27±4 percentage
[3]; Renal cell carcinoma (clear cell renal cell carcinoma), cases with presence of ERK
  Percentage of inhibition of cell cultures: 94±3 percentage
[3]; Renal cell carcinoma (clear cell renal cell carcinoma), cases without presence of ERK
  Percentage of inhibition of cell cultures: 27±3 percentage
[3]; Thyroid carcinoma (follicular carcinoma), cases with presence of ERK
  Percentage of inhibition of cell cultures: 96±6 percentage
[3]; Thyroid carcinoma (follicular carcinoma), cases without presence of ERK
  Percentage of inhibition of cell cultures: 26±4 percentage
[3]; Thyroid carcinoma (papillary carcinoma), cases with presence of ERK
  Percentage of inhibition of cell cultures: 97±4 percentage
[3]; Thyroid carcinoma (papillary carcinoma), cases without presence of ERK
  Percentage of inhibition of cell cultures: 28±3 percentage
[3]; Undifferentiated Pleomorphic Sarcoma (malignant fibrous histiocytoma grade 3), cases with presence of ERK
  Percentage of inhibition of cell cultures: 95±3 percentage
[3]; Undifferentiated Pleomorphic Sarcoma (malignant fibrous histiocytoma grade 3), cases without presence of ERK
  Percentage of inhibition of cell cultures: 26±4 percentage
[3]; Urinary bladder carcinoma (transitional cell carcinoma), cases with presence of ERK
  Percentage of inhibition of cell cultures: 98±2 percentage
[3]; Urinary bladder carcinoma (transitional cell carcinoma), cases without presence of ERK
  Percentage of inhibition of cell cultures: 29±4 percentage
[3]; cancer cell cultures that show more presence of ERK, compared, non-peptidic antagonists 100 micromolar, antibody 1/50
  inhibition of cell proliferation: higher inhibition
Endometrium carcinoma; Cases with Kras mutated
  inhibition at 100 µM: 28 ± 2%
Endometrium carcinoma; [6]
  inhibition at 100 µM: 94 ± 4%
[4]; Cases with Kras mutated
  inhibition at 100 µM: 32 ± 4%
[4]; [6]
  inhibition at 100 µM: 94 ± 6%
[5]; [7]
  inhibition at 1 µM: 16 ± 2%
[5]; [8]
  inhibition at 1 µM: 44 ± 2%
[5]; [9]
  inhibition at 1 µM: 95 ± 5%
[5]; [10]
  inhibition at 1 µM: 35 ± 4%
[5]; [11]
  inhibition at 1 µM: 55 ± 6%
[5]; [12]
  inhibition at 1 µM: 92 ± 3%
Non Hodgkin Lymphoma T; [7]
  inhibition at 1 µM: 14 ± 2%
Non Hodgkin Lymphoma T; [8]
  inhibition at 1 µM: 46 ± 6%
